For series [1], the system named is Alcohol dehydrogenase (Adh) gene. Description: Northern blot of total RNA from suspension cells with or without cycloheximide, maize Adh probe. The series is classed as cell-based, rice. The note with it: for Adh transcripts: cycloheximide in the presence of O2, suspension cells. The protocol: Two-week-old uniform seedlings of rice (IR54 variety) were transferred to two liter flasks and subjected to anaerobic conditions. Seedlings were submerged in distilled water through which nitrogen gas was continuously bubbled. The anaerobic treatment was conducted in the dark at 25° C. Control seedlings were maintained in the dark at 25° C. Tissues were harvested and immersed in liquid nitrogen. Extraction of RNA was carried out according to the procedure of Logmann et al. (Anal Biochem 163: 16-20, 1987) with modifications. The frozen tissue (2 gm) was ground in liquid nitrogen in an autoclaved mortar and pestle, and transferred to autoclaved plastic centrifuge tubes. Extraction buffer (4M guanidine hydrochloride, 20 mM MES, 20 mM EDTA, 4 ml/g tissue) was added to each tube. After vigorous shaking and complete mixing the suspension was extracted once with phenol:chloroform:isoamyl alcohol (25:24:1) and centrifuged for 45 minutes at room temperature at 10,000 rpm in a Beckman centrifuge using JA-20 rotor. Then 0.2 volumes of 1 M acetic acid [diethyl pyrocarbonate (DEPC) -treated] were added to the supernatant to acidify the contents, and the RNA was precipitated by adding 0.7 volumes of ethanol after 1 hour incubation at −80° C. following centrifugation at 10,000 rpm for 10 minutes. The RNA pellet was subsequently dissolved in DEPC-treated water and reprecipitated using ⅓ volume of 8 M LiCl (overnight at 4° C.). The RNA sample was subsequently washed with 80% ethanol and dissolved in DEPC-water after drying, and quantified spectrophotometrically. Suspension cultures of Radon variety were also treated in the same way under anaerobic conditions. Cycloheximide was added at a final concentration of 100 μM, and anaerobic conditions were applied for various time periods after 30 minutes pretreatment. RNA was isolated using the same procedure described above.
Ten μg of total RNA isolated from suspension cells (Radon variety) was loaded in each lane and was resolved in 1.2% formaldehyde-agarose gel according to standard procedures. […]

Series [2] relates to rice suspension cells. Kind of series: Protein synthesis in rice suspension cells. The format is cell-based. The note with it: cycloheximide at 20 to 300 μM.
A further series relates to pdc genes. Description: Northern blot of total RNA from suspension cells under anaerobic conditions with or without cycloheximide, common pdc probe. The format is cell-based, rice. As to conditions: 100 μM cycloheximide, suspension cells (Radon variety). The protocol:
Two-week-old uniform seedlings of rice (IR54 variety) were transferred to two liter flasks and subjected to anaerobic conditions. Seedlings were submerged in distilled water through which nitrogen gas was continuously bubbled. The anaerobic treatment was conducted in the dark at 25° C. Control seedlings were maintained in the dark at 25° C. Tissues were harvested and immersed in liquid nitrogen. Extraction of RNA was carried out according to the procedure of Logmann et al. (Anal Biochem 163: 16-20, 1987) with modifications. The frozen tissue (2 gm) was ground in liquid nitrogen in an autoclaved mortar and pestle, and transferred to autoclaved plastic centrifuge tubes. Extraction buffer (4M guanidine hydrochloride, 20 mM MES, 20 mM EDTA, 4 ml/g tissue) was added to each tube. After vigorous shaking and complete mixing the suspension was extracted once with phenol:chloroform:isoamyl alcohol (25:24:1) and centrifuged for 45 minutes at room temperature at 10,000 rpm in a Beckman centrifuge using JA-20 rotor. […] The RNA sample was subsequently washed with 80% ethanol and dissolved in DEPC-water after drying, and quantified spectrophotometrically. […]

For series [3], the system named is rice suspension cells. Kind of series: GUS activity of promoter-uidA construct shot into rice suspension cells. The format is cell-based. As to conditions: 2.38 kb region fused to the uidA gene.

“Also recorded” adds a separate entry of the source.

Consider two compounds from US6541621B1, “Hypoxia inducible promoter” (Purdue University Research Foundation, priority 1997, dated 2003).

Take `C[C@@H]1C[C@@H]([C@H](O)CC2CC(=O)NC(=O)C2)C(=O)[C@@H](C)C1` [cycloheximide]: the “induction of Adh gene” value in series [1] (100 μM cycloheximide, anaerobic conditions, suspension cells) is “down-regulated; also recorded: reduced induction”. In addition, the Adh transcripts entry is reported as “induced Adh transcripts” in series [1] and “induced Adh messages” in series [1] (listed as Cycloheximide). In addition, in the series with rice suspension cells [2], the protein synthesis result is “reduce protein synthesis”. Besides, in the series with pdc genes, the “induction of pdc genes” value is recorded as “reduce the induction of pdc genes; also recorded: reduced induction”.
Regarding “2.38 kb region: about 2.38 kb 5' upstream region of the rice pdc2 gene (hypoxia inducible promoter), fused to the uidA gene”, the GUS activity result in the series with rice suspension cells [3] was “showed GUS activity”.
